Series [1] can be described thus: Percent drug content change of coated cobalt-chromium stent, 0 to 12 weeks (FIG. 1). The format is physicochemical. The note with it: 0.02 weight percent BHT per total basecoat solids; sirolimus and polymer on 18 mm stent; 8 weeks and 12 weeks, ambient conditions (25° C.). The source says: Referring to FIG. 1, there is illustrated in graphical format, the results of the same drug screening as described above with the solution applied to a cobalt-chromium, 18 mm stent. In this test, two sets of solution samples were utilized, one with sirolimus and polymer solution containing the antioxidant and one with sirolimus and polymer solution containing no antioxidant. The antioxidant utilized was 0.02 weight percent BHT per total basecoat solids. The test was utilized to determine the percent drug content change over a time period of 0 to 12 weeks under two conditions; namely, 40° C. with 75 percent relative humidity, and ambient conditions (25° C.).

How the values of series [2] were obtained:
Table 9, shown below, summarizes a number of injectable liquid formulations of paclitaxel utilizing combinations of ethanol, PEG 400 and water. Specifically, the formulations set forth in Table 9 were made and analyzed for their concentrations of its various constituents. The concentrations are determined by liquid chromatography and are presented as weight by volume figures. The concentration of ethanol is preferably two or less percent so as to avoid ethanol becoming an active ingredient in the formulation.
Another aqueous liquid or injectable formulation of paclitaxel is made utilizing ethanol, PEG 400 and water, and ethanol, Vitamin E TPGS, PEG400 and water. In making the first formulation, 100 mg of paclitaxel is added to 400 μl of ethanol in a pre-weighed 20 ml scintillation vial. The mixture of paclitaxel and ethanol is vortexed and heated in a 60 degree C. bath for ten minutes. Once the drug is completely solubilized, 20 ml of PEG 400 is then added to make the final paclitaxel concentration 5 mg/ml. […] In a separate experiment, a series of 20 ml scintillation vials containing Vitamin E TPGS are heated or warmed up in a 50 degree C. water bath for ten minutes. Concurrently, distilled water is also warmed in a 50 degree C. water bath. […]

Series [3] in a line: Drug concentration in liquid formulations by liquid chromatography. The format is physicochemical. The conditions noted are these: water, Vitamin E TPGS as excipient, ethanol less than two percent. As to the method:
Table 7, shown below, summarizes the concentrations of the excipient, the co-solvents and the drug for four different liquid formulations.
Another liquid formulation of sirolimus comprises water and ethanol as co-solvents and Vitamin E TPGS as the excipient. The liquid formulation was created utilizing the following process. Two hundred milligrams of sirolimus and two grams of ethanol were added to a pre-weighed twenty milliliter scintillation vial. The vial was vortexed and sonicated until the sirolimus was completely dissolved. Approximately six hundred milligrams of Vitamin E TPGS was then added to the solution of ethanol and sirolimus. The vial was vortexed again until a clear yellowish solution was obtained. Nitrogen gas was then used to reduce the amount of ethanol in the vial to approximately two hundred twenty-nine milligrams. In a separate vial, three hundred milligrams of Vitamin E TPGS was dissolved in eleven milliliters of purified water while undergoing vortexing. The Vitamin E TPGS and water solution was then added to the first vial containing the sirolimus, Vitamin E TPGS and ethanol. The first vial was then vortexed vigorously and continuously for three minutes. […] The foam gradually disappeared after sitting at room temperature.
An aqueous formulation of CCl-779, a sirolimus analog, is prepared utilizing ethanol, Vitamin E TPGS and water. […]

Results on three compounds are retold here after patent publication US20120303115A1 (priority 2011, published 2012).

As to `Cc1cc(C(C)(C)C)c(O)c(C(C)(C)C)c1` [BHT, butylated hydroxytoluene], the “drug degradation (percent drug content change)” value in series [1] is on record as “lessens drug degradation”. Consider `CC(=O)O[C@H]1C(=O)[C@@]2(C)[C@H]([C@H](OC(=O)c3ccccc3)[C@]3(O)C[C@H](OC(=O)[C@H](O)[C@@H](NC(=O)c4ccccc4)c4ccccc4)C(C)=C1C3(C)C)[C@]1(OC(C)=O)CO[C@@H]1C[C@@H]2O` [paclitaxel], for which, in series [2], the “concentration relative to the solubility of paclitaxel in water” value is on record as “about 1000 fold” and the “paclitaxel concentration of true aqueous liquid formulations” value is listed as “up to 2.5 mg/ml”. With CCl-779, the “concentration in the final solution (HPLC assay)” value in series [3] was found to be 15000 µg/mL.
